Measurements: US20260374739A1, “SMALL MOLECULAR WEIGHT CHEMICAL COMPOUND TO ANTAGONIZE EPH-EPHRIN TETRAMERIZATION AND INHIBIT BIDIRECTIONAL SIGNALING” (THE BOARD OF REGENTS OF THE UNIVERSITY OF TEXAS SYSTEM, priority 2022, published 2026)

How the values were obtained:
[1] = target: T1, EphB2-Fc with EB2-His (Mus musculus, UniProt P54763); test: Alpha assay EphB2-EB2; type: binding
T1 construct: soluble EphB ectodomains conjugated to Fc from R&D Systems; mouse EB2-His residues 18-232; purchased R&D Systems (EphB-Fc); Sino Biologicals (EphrinB-His)
T1 sequence (P54763 19-543 limits assumed): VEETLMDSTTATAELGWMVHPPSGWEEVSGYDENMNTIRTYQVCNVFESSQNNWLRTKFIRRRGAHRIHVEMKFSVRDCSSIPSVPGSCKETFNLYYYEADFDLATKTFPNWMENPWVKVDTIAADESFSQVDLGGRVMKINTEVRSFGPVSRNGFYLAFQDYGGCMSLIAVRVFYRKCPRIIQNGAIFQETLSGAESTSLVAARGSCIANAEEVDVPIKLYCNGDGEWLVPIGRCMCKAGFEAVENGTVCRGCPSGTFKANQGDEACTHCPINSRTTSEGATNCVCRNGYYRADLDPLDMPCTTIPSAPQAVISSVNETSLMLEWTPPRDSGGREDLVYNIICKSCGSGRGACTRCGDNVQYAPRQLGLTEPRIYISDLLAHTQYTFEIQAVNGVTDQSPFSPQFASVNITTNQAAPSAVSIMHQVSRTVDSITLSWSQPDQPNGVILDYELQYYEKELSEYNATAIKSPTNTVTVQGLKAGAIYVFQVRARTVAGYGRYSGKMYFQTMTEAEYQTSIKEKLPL
Description: FIG. 5D depicts results from an alpha assay using EphB2-Fc or EphB4-Fc with EB2-His and increasing A20 concentrations to calculate IC50 determination (~10 μM, similar to that found in FIG. 5C).
Protein interaction assays were developed using soluble EphB ectodomains conjugated to Fc from R&D Systems (e.g., rat EphB1-Fc residues 18-538, which is 99.4% identical to human) and EphrinB ectodomains conjugated to His from Sino Biologicals (e.g., mouse EB2-His residues 18-232, which is 97.7% identical to human). Titrating concentrations of the EphB1-Fc ectodomain (or unconjugated Fc protein as negative control) was added with titrating amounts of the three different EphrinB ectodomains (EB1-His, EB2-His, or EB3-His) with 125 ng each of the Protein A donor, anti-6×-His acceptor beads, 2% DMSO, and 1× HiBlock buffer (all from PerkinElmer) in 384 well plates, and after 3 hr incubation at RT were read in an Envision Multilabel Reader 2102. […] No signal above background (<1,500) was detected for wells that contained an Fc control protein and the EB-His proteins or just the EphB1-Fc protein and no EB-His protein.
A20, E13, and other compounds from the top 32 hits were then characterized in pulldown assays. […]

[2] = target: EphrinB3-EphB2 (Homo sapiens, UniProt P29323); test: Octet, immobilized human EphrinB3 binding to human EphB2
Chain of EphrinB3-EphB2 (P29323 19-543 limits assumed): as the sequence (P54763 19-543 limits assumed) above, with L104S, N154S, K520Q counted along it
Description: Studies were conducted to confirm that A20 chemicals can effectively target the human Eph/Ephrin proteins. Octet system was used to first characterize the biophysical interactions of the human B class Eph and Ephrin proteins, and then was tested to assess how A20 may disrupt the interactions. Since the human and rodent proteins are highly conserved, and essentially identical, with EphB2 sharing 99.5% identity between human and mouse, with only 5 of ~1,000 amino acids different, any species-specific differences were not anticipated. Therefore, commercially available human EphrinB1-Fc (EB1), EphrinB2-Fc (EB2), and EphrinB3-Fc (EB3) ectodomain proteins were sparsely immobilized onto biosensors and then exposed to 50 nM of soluble human EphB1-His, EphB2-His, and EphB4-His ectodomains for 800 sec association and 1,000 sec dissociation steps with a total of nine different interactions analyzed. In the absence of A20 chemical, the immobilized human EphrinB proteins bound to their appropriate human EphB target proteins; with EphrinB1 only bound EphB1 and EphB2, EphrinB2 bound all three EphB1, EphB2, and EphB4, and EphrinB3 only bound EphB1 and EphB2 (FIG. 19A-19B).
Addition of compound also altered dissociation kinetics. […] This is referred to as the “unsurmountable” component of the Eph-Ephrin interaction (FIG. 21C). Additionally, AUC data was graphed for these runs (FIG. 21D). […]

[3] = target: EphB2-EphrinB2 tetramer (Homo sapiens, UniProt P29323); test: mass photometry; type: binding, mouse EphrinB2; details: 216 kDa without
Chain of EphB2-EphrinB2 tetramer (P29323 19-543 limits assumed): as the sequence (P54763 19-543 limits assumed) above, with L104S, N154S, K520Q counted along it
Description: To verify the kinetic studies using the Octet system, mass photometry (MP) that uses optical detection to measure the mass of individual proteins and protein complexes in solution was employed. MP was used to determine the mass of EphB2 and EphrinB2 ectodomain proteins individually or after being combined and allowed to associate into tetramers for a 24 hr period either without or with 10 or 50 μM concentrations of the A20 salt (FIG. 26). For these experiments His-tagged proteins, human hEphB2-His and murine mEB2-His were used. […] During MP experiments EphB2 and EB2 when analyzed alone would each measure as a homodimer, and when the EphB2 and EphrinB2 proteins are combined, the average mass of the protein species shifted to a larger 216 kDa species (FIG. 26C). The size was as expected if two EphB2 and two EphrinB2 molecules complexed together into the stable circular tetramer (130+83=213 kDa). […] It is important to understand that the MP experiments described here are powerful, but also temporally limited because we can really only assess the protein species after interaction homeostasis has been achieved and for this experiment the proteins and A20 were allowed to incubate together for 24 hr before masses were determined.

Work on Oc1c(Br)cc(CN2CCOCC2)c2cccnc12 [Compound 5, 7-bromo-5-(morpholinomethyl)quinolin-8-ol] yielded an IC50 [1] of about 10 µM, an inhibition at 1 µM ([2]; EB3-EphB2, A20, read-out: reduction of tetramers) of about 45% and an IC (maximum) ([2]; read-out: concentration producing maximum inhibition) of 1 µM. For the same molecule, the “average mass of protein species” value ([3]; 10 μM A20 salt) was 158 kDa and the “average mass of protein species” value ([3]; 50 μM A20 salt) was 150 kDa.
